Data taken from patent publication US20180085381A1, “Adjunctive Therapy With 25-Hydroxyvitamin D” (priority 2014, published 2018).

Key:
[1] = tested on: adult female patients with breast cancer; test: Efficacy study in breast cancer patients treated with denosumab; format: in vivo, human; details: for incidence of hypocalcemia and severity of secondary hyperparathyroidism: once stable dosing has been achieved, denosumab-treated
[2] = tested on: adult male and female patients with osteoporosis; test: Efficacy study in osteoporosis patients treated with an antiresorptive agent (denosumab); format: in vivo, human; details: for incidence of hypocalcemia and severity of secondary hyperparathyroidism: once stable dosing has been achieved, denosumab-treated
[3] = tested on: adult male patients with bone-metastasized castration-resistant prostate cancer; test: Efficacy study in prostate cancer patients treated with denosumab; details: for incidence of hypocalcemia and severity of SHPT and hypercalcemia: once stable dosing has been achieved, denosumab-treated
Procedure: In a randomized, double-blind controlled study, patients are treated with denosumab (120 mg every four weeks). All denosumab-treated patients are randomized to receive daily oral treatment with one softgel capsule containing either 30 mcg of 25-hydroxyvitamin D3 in a modified release formulation or 400 IU of Vitamin D3 in an immediate release formulation. A total of 500 subjects participate in this study, all of whom are aged 18 years or older with histologically confirmed prostate cancer. […] All patients receive a radioisotope bone scan during screening with subsequent imaging by CT, MRI, or plain radiograph if needed to confirm bone metastases. All subjects receive calcium supplements (500 mg/day) and abstain from taking other Vitamin D supplements for 60 days before study start and continuing through study termination, and from significant sun exposure.
All subjects begin daily dosing with softgel capsules at the start of denosumab treatment. Serum total 25-hydroxyvitamin D, PTH, calcium, phosphorus, N- and C-telopeptides, and P1NP, and urinary calcium, phosphorus and creatinine, are measured monthly. Radiographic bone scans are conducted every 6 months to detect skeletal metastases, with a second imaging modality (CT, MRI, or plain radiograph) used to confirm diagnosis of any metastases detected. Bone mineral density at four sites (total hip, femoral neck, ⅓ radius and lumbar spine) is determined at the start of the study and thereafter at yearly intervals. After 3 months, the daily dosage of 25-hydroxyvitamin D3 capsules is maintained unchanged in patients whose serum total 25-hydroxyvitamin D is between 50 and 90 ng/mL, and increased by one 30 mcg capsule in patients whose serum total 25-hydroxyvitamin D is below 50 ng/mL.

[4] = tested on: patients with bone metastases; details: patients with bone metastases treated with zoledronic acid; cited from earlier work
[5] = tested on: adult patients diagnosed with metastases in bone originating from breast or prostate cancer; test: Efficacy study in patients with metastatic bone disease receiving an antiresorptive agent (6-month, placebo-controlled); format: in vivo, human
Procedure: Denosumab or zoledronic acid are administered according to the typical standard of care for each patient's condition. […] Samples are collected at monthly intervals for monitoring serum and urine levels of calcium, plasma levels of PTH and serum total 25-hydroxyvitamin D. Serum markers of tumor burden and bone metabolism, as well as cancer progression are assessed at 3-month intervals.

[6] = tested on: adult patients diagnosed with metastases in bone originating from breast or prostate cancer; format: in vivo, human
Procedure: At the start of the study, all patients have plasma PTH greater than 70 pg/mL as evidence of SHPT, serum calcium less than 9.8 mg/dL, spot urine Ca:Cr ratio≦0.25 (≦250 mg/g creatinine) and an estimated glomerular filtration rate greater than 15 mL/min/1.73 m^2. […] Denosumab or zoledronic acid are administered according to the typical standard of care for each patient's condition.
The 52-week study consists of a 40 week dose escalation phase followed by a 12-week maintenance phase. At the end of the maintenance phase, there is a two-week follow up phase. At the start of the study, all patients receive an initial daily dose of 30 mcg 25-hydroxyvitamin D3, which is increased at four-week intervals over the course of the dose escalation phase up to a maximum daily dose of 300 mcg. The daily dose achieved by the end of the dose escalation study is the daily dose administered during the maintenance phase.
Blood samples are collected at 2-week intervals for monitoring serum levels of calcium and phosphorus. Samples are collected at 4-week intervals for monitoring plasma levels of PTH and PTHrP and serum total 25-hydroxyvitamin D, 24,25-dihydroxyvitamin D3, calcitriol, and free and total calcifediol. Serum vitamin D metabolites and markers of bone metabolism, immune function, and tumor burden are measured at the beginning of the dose escalation phase and at the beginning and end of the maintenance phase. Urine samples are collected at 4-week intervals for monitoring the Ca/Cr ratio and urine chemistry. The genotype of vitamin D binding protein is determined for each subject at the beginning of the dose escalation phase.

[7] = tested on: castration-resistant prostate cancer or estrogen-independent breast cancer metastatic to bone; test: Efficacy study in patients with metastatic bone disease for prevention of SREs (24-month, placebo-controlled); format: in vivo, human
Procedure: Denosumab or zoledronic acid are administered according to the typical standard of care for each patient's condition. Patients are monitored for SREs, including by appropriate non-invasive imaging techniques, and serum markers of tumor burden and bone metabolism at 3-month intervals, and at monthly intervals for serum and urine calcium levels and plasma PTH. Cancer progression is monitored at quarterly intervals.

[8] = with denosumab, 24 months, compared to denosumab and Vitamin D3
[9] = with denosumab, versus denosumab and vitamin D3
[10] = 6 months, with denosumab or zoledronic acid, compared to placebo
[11] = with denosumab or zoledronic acid, compared to placebo combination
[12] = 24 months, with denosumab or zoledronic acid, compared to placebo

SMILES: C=C1CC[C@H](O)C/C1=C/C=C1\CCC[C@]2(C)[C@@H]([C@H](C)CCCC(C)C)CC[C@@H]12 [Vitamin D3, cholecalciferol, reference compound]
- incidence of hypocalcemia and severity of secondary hyperparathyroidism [1]: occur more frequently
- incidence of hypocalcemia and severity of secondary hyperparathyroidism [2]: occur more frequently
- incidence of hypocalcemia and severity of SHPT and hypercalcemia [3]: more frequently

SMILES: O=P(O)(O)C(O)(Cn1ccnc1)P(=O)(O)O [zoledronic acid]
- patients who developed hypocalcemia [4]: 39%

SMILES: C=C1CC[C@H](O)C/C1=C/C=C1\CCC[C@]2(C)[C@@H]([C@H](C)CCCC(C)(C)O)CC[C@@H]12 [25-hydroxyvitamin D3]
- serum levels of 25-hydroxyvitamin D3 after 24 months ([1]; human, in vivo): higher and more consistent
- side effects related to calcium and PTH metabolism ([1]; human, in vivo): without causing unacceptable side effects
- incidence of hypocalcemia and severity of secondary hyperparathyroidism [1]: markedly reduced
- incidence of hypocalcemia [1, 8]: significantly lower incidence
- increases in bone mineral density [1, 8]: larger increases
- time to additional bone metastasis [1, 8]: significantly delayed
- serum PTH levels after 24 months [1, 9]: lower
- plasma PTH [5, 10]: decrease
- risk of hypocalcemia [5, 10]: reduced risk
- serum calcium [5, 10]: greater increase
- side effects related to calcium and PTH metabolism ([5]; modified release formulation): without causing unacceptable side effects
- cancer progression ([5]; modified release formulation, 6 months): delaying cancer progression
- time to additional bone metastasis [5, 11]: increased delay
- plasma PTH in the dose escalation phase ([6]; 30 to 300 mcg daily, raised at four-week intervals, with denosumab or zoledronic acid): decreases
- change in serum 1,25-dihydroxyvitamin D ([6]; human, in vivo): significant increases
- change in serum 24,25-dihydroxyvitamin D ([6]; human, in vivo): significant increases
- change in serum total 25-hydroxyvitamin D ([6]; human, in vivo): significant increases
- serum calcium in the dose escalation phase ([6]; human, in vivo): gradually rises
- plasma PTH [7, 12]: decrease
- risk of hypocalcemia [7, 12]: reduced risk
- serum calcium [7, 12]: greater increase
- observed time to a post-treatment SRE ([7]; compared to placebo): significantly increasing
- tumor progression ([7]; compared to placebo): inhibiting tumor progression
- time to additional bone metastasis or SRE [7, 11]: increased delay
- serum levels of 25-hydroxyvitamin D3 after 24 months ([2]; human, in vivo): higher and more consistent
- side effects related to calcium and PTH metabolism ([2]; human, in vivo): without causing unacceptable side effects
- incidence of hypocalcemia and severity of secondary hyperparathyroidism [2]: markedly reduced
- increases in bone mineral density ([2]; with denosumab, 24 months, versus denosumab and Vitamin D3): larger increases
- serum PTH levels after 24 months [2, 9]: lower
- side effects related to calcium and PTH metabolism ([3]; modified release formulation, with denosumab): without causing unacceptable side effects
- incidence of hypocalcemia and severity of SHPT and hypercalcemia [3]: markedly reduced
- incidence of hypocalcemia [3, 8]: significantly lower incidence
- increases in bone mineral density [3, 8]: larger increases
- plasma PTH levels [3, 8]: reduced
- time to first post-treatment SRE [3, 8]: significantly delayed
- serum PTH levels after 24 months [3, 9]: lower
- serum levels of 25-hydroxyvitamin D3 after 24 months [3, 9]: higher and more consistent
